Experimental data as given in EP1981504B1, “THIADIAZOLE DERIVATIVES FOR THE TREATMENT OF NEURO DEGENERATIVE DISEASES” (NV reMYND, priority 2006, dated 2007).
≈ marks a conversion by molar mass, not a printed value.

Tested on: M17-SYNwt cells
Test: α-synuclein cytotoxicity assay (LDH leakage from paraquat-treated α-synuclein over-expressing neuroblastoma cells)
Format: cell-based, human
Details: paraquat 32 mM, 40 hours, LDH release; for EC50: Homo sapiens, Neuroblastoma cell, 10 point curves in duplicate; for %I: percent inhibition of synuclein cytotoxicity at most effective concentration of test compound, relative to untreated paraquat cells
Method in brief: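 M17 neuroblastoma cells over-expressing wild-type α-synuclein were challenged with paraquat, and cytotoxicity was read as LDH release. Protection was expressed as percent reduction of paraquat-induced LDH release relative to untreated paraquat cells and control cells. Actives were retested in 10-point duplicate dose responses.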

Compound | EC50 [µg/mL] | %I [%]
O=C(NCCN1CCN(c2nc(Cc3ccc(F)cc3)ns2)CC1)c1ccc(Cl)cc1 [Compound 97, 4-chloro-N-{2-[4-[3-(4-fluorobenzyl)-1,2,4-thiadiazol-5-yl]piperazin-1-yl]ethyl}benzamide] | 1.29 (≈ 2.8 µM) | 68
Cc1ccc(Cc2nsc(N3CCN(S(=O)(=O)c4cccc5ccccc45)C(C)C3)n2)cc1 (centres unmarked) [Compound 41] | 0.53 (≈ 1.11 µM) | 54
COc1ccc(S(=O)(=O)N2CCN(c3nc(Cc4ccc(C)cc4)ns3)CC2)cc1 [Compound 68, 1-[4-methoxyphenylsulfonyl]-4-[3-(4-methylbenzyl)-1,2,4-thiadiazol-5-yl]piperazine] | 0.000255 (≈ 0.000574 µM) | 53
Cc1ccc(Cc2nsc(N3CCN(S(=O)(=O)c4c(C)cc(C)cc4C)C(C)C3)n2)cc1 (centres unmarked) [Compound 45, 1-[2,4,6-trimethylphenylsulfonyl]-4-[3-(4-methylbenzyl)-1,2,4-thiadiazol-5-yl]-2-methylpiperazine] | 1.2 (≈ 2.55 µM) | 56
CC1CN(c2nc(Cc3ccc(F)cc3)ns2)CCN1C(=O)Nc1ccc(F)cc1F (centres unmarked) [Compound 23, N-(2,4-difluorophenyl)-4-[3-(4-fluorobenzyl)-1,2,4-thiadiazol-5-yl]-2-methylpiperazine-1-carboxamide] | 0.94 (≈ 2.1 µM) | 66
COc1ccc(S(=O)(=O)N2CCN(c3nc(Cc4cccc(C)c4)ns3)CC2)cc1 [Compound 201] | 0.0021 (≈ 0.00472 µM) | 97
CC1CN(c2nc(Cc3ccc(F)cc3)ns2)CCN1C(=O)c1ccc2c(c1)OCO2 (centres unmarked) [Compound 178, 1-(1,3-benzodioxol-5-ylcarbonyl)-4-[3-(4-fluorobenzyl)-1,2,4-thiadiazol-5-yl]-2-methylpiperazine] | – | 68
CCc1ccc(C(=O)N2CCN(c3nc(Cc4ccc(Cl)cc4)ns3)CC2)cc1 [Compound 165, 1-(4-ethylbenzoyl)-4-[3-(4-chlorobenzyl)-1,2,4-thiadiazol-5-yl]piperazine] | – | 133
O=C(Nc1ccccc1F)N1CCN(c2nc(Cc3ccc(F)cc3)ns2)CC1 [Compound 16, N-(2-fluorophenyl)-4-[3-(4-fluorobenzyl)-1,2,4-thiadiazol-5-yl]piperazine-1-carboxamide] | 5.68 (≈ 13.7 µM) | 72
Cc1ccc(Cc2nsc(N3CCN(C(=O)c4ccccc4F)CC3)n2)cc1 [Compound 175, 1-(2-fluorobenzoyl)-4-[3-(4-methylbenzyl)-1,2,4-thiadiazol-5-yl]piperazine] | – | 78
Cc1ccc(Cc2nsc(N3CCN(C(=O)c4ccc(C(F)(F)F)cc4)CC3)n2)cc1 [Compound 171, 1-(4-trifluoromethylbenzoyl)-4-[3-(4-methylbenzyl)-1,2,4-thiadiazol-5-yl]piperazine] | – | 86
Cc1ccc(NC(=O)N2CCN(c3nc(Cc4ccc(F)cc4)ns3)CC2C)c(C)c1 (centres unmarked) [Compound 20, N-(2,4-dimethylphenyl)-4-[3-(4-fluorobenzyl)-1,2,4-thiadiazol-5-yl]-2-methylpiperazine-1-carboxamide] | 0.76 (≈ 1.73 µM) | 106
Cc1ccc(C(=O)N2CCN(c3nc(Cc4ccc(F)cc4)ns3)CC2C)cc1 (centres unmarked) [Compound 139, 1-(4-methylbenzoyl)-4-[3-(4-fluorobenzyl)-1,2,4-thiadiazol-5-yl]-2-methylpiperazine] | 0.4 (≈ 0.974 µM) | 87
O=C(Nc1cccc(F)c1)N1CCN(c2nc(Cc3ccc(F)cc3)ns2)CC1 [Compound 9, N-(3-fluorophenyl)-4-[3-(4-fluorobenzyl)-1,2,4-thiadiazol-5-yl]piperazine-1-carboxamide] | 0.52 (≈ 1.25 µM) | 53
O=C(Cc1ccccc1)N1CCN(c2nc(Cc3ccc(F)cc3)ns2)CC1 [Compound 1, 4-phenylacetyl-1-[3-(4-fluorobenzyl)-1,2,4-thiadiazol-5-yl]piperazine] | 0.15 (≈ 0.378 µM) | 75
